According to the kinase profiling compilation of Christmann-Franck et al. (2016):

Columns and labels:
Assay in all cases: KINOMEscan competition binding
Conditions in all cases: compound 10.0 µM
[1] = test system: EGFR (human), P00533 [T790M/L858R]
[2] = test system: ABL1 (human), P00519 [Y253F]
[3] = test system: EGFR (human), P00533 [752-759 del]
[4] = test system: MET (human), P08581 [Y1235D]
[5] = test system: ABL1 (human), P00519 [H396P]
[6] = test system: KIT (human), P10721 [L576P]
[7] = test system: EGFR (human), P00533 [747-751 del / S ins]
[8] = test system: RET (human), P07949 [M918T]
Chain of RET (human), P07949 [M918T] (P07949 whole entry M918T, looked up): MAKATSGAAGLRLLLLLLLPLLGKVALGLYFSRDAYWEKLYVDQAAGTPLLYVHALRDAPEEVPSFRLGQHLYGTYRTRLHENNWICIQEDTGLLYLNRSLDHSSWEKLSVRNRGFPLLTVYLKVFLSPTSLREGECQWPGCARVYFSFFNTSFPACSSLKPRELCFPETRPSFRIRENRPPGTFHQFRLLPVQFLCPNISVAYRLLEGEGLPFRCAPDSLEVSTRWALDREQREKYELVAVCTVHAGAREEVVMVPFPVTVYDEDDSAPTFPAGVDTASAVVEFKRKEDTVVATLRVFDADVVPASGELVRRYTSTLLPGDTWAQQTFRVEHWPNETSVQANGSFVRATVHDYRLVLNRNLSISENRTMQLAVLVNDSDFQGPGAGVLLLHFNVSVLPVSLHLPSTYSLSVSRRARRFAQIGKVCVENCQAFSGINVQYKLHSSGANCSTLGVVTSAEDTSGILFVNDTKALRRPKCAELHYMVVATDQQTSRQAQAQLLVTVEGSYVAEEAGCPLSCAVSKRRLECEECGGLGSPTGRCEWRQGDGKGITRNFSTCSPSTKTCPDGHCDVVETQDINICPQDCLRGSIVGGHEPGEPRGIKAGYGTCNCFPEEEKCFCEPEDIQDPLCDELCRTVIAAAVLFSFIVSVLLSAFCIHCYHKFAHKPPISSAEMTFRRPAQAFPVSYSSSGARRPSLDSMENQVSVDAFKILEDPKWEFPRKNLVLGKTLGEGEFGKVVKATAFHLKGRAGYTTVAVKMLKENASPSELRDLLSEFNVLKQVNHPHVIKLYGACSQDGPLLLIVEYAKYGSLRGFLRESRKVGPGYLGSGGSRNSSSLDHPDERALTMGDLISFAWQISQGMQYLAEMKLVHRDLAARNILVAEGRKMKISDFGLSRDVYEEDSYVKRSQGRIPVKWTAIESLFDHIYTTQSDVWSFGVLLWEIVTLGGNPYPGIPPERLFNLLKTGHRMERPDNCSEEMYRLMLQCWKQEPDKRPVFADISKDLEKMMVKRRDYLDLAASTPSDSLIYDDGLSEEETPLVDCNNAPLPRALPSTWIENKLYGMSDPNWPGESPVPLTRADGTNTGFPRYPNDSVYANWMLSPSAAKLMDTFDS

[9] = test system: KIT (human), P10721 [V559D/V654A]
Chain of KIT (human), P10721 [V559D/V654A] (P10721 whole entry V559D/V654A, looked up): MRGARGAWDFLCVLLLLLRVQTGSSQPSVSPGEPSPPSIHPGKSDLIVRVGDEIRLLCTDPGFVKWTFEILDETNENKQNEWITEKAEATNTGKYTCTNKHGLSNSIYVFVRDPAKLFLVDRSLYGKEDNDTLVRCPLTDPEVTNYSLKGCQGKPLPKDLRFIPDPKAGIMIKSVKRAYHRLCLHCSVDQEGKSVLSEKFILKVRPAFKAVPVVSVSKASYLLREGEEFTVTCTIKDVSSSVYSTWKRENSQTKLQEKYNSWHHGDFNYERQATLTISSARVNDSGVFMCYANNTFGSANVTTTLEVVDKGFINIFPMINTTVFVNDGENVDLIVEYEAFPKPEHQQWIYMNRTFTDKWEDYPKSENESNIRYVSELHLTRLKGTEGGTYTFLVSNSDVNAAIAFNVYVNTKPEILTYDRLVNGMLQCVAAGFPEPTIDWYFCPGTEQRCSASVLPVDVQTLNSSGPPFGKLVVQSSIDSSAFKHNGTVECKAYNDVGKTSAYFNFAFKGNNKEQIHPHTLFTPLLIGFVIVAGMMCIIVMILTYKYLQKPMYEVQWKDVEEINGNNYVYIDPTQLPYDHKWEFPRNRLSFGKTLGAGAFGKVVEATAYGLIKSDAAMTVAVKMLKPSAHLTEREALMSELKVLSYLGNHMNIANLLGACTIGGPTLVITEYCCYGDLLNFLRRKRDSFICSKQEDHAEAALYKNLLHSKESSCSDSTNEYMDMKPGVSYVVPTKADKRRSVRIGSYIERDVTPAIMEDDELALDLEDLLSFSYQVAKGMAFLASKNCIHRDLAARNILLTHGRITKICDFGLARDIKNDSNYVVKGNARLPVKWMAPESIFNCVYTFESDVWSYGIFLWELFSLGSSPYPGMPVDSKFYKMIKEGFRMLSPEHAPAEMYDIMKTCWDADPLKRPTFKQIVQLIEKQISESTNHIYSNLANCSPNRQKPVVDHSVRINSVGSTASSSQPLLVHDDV

[10] = test system: RET (human), P07949 [V804M]
Chain of RET (human), P07949 [V804M] (P07949 whole entry V804M, looked up): as the sequence (P07949 whole entry M918T, looked up) above, with V804M, T918M counted along it

[11] = test system: FLT3 (human), P36888 [D835H]
[12] = test system: ALK (human), Q9UM73 [C1156Y]
Chain of ALK (human), Q9UM73 [C1156Y] (Q9UM73 whole entry C1156Y, looked up): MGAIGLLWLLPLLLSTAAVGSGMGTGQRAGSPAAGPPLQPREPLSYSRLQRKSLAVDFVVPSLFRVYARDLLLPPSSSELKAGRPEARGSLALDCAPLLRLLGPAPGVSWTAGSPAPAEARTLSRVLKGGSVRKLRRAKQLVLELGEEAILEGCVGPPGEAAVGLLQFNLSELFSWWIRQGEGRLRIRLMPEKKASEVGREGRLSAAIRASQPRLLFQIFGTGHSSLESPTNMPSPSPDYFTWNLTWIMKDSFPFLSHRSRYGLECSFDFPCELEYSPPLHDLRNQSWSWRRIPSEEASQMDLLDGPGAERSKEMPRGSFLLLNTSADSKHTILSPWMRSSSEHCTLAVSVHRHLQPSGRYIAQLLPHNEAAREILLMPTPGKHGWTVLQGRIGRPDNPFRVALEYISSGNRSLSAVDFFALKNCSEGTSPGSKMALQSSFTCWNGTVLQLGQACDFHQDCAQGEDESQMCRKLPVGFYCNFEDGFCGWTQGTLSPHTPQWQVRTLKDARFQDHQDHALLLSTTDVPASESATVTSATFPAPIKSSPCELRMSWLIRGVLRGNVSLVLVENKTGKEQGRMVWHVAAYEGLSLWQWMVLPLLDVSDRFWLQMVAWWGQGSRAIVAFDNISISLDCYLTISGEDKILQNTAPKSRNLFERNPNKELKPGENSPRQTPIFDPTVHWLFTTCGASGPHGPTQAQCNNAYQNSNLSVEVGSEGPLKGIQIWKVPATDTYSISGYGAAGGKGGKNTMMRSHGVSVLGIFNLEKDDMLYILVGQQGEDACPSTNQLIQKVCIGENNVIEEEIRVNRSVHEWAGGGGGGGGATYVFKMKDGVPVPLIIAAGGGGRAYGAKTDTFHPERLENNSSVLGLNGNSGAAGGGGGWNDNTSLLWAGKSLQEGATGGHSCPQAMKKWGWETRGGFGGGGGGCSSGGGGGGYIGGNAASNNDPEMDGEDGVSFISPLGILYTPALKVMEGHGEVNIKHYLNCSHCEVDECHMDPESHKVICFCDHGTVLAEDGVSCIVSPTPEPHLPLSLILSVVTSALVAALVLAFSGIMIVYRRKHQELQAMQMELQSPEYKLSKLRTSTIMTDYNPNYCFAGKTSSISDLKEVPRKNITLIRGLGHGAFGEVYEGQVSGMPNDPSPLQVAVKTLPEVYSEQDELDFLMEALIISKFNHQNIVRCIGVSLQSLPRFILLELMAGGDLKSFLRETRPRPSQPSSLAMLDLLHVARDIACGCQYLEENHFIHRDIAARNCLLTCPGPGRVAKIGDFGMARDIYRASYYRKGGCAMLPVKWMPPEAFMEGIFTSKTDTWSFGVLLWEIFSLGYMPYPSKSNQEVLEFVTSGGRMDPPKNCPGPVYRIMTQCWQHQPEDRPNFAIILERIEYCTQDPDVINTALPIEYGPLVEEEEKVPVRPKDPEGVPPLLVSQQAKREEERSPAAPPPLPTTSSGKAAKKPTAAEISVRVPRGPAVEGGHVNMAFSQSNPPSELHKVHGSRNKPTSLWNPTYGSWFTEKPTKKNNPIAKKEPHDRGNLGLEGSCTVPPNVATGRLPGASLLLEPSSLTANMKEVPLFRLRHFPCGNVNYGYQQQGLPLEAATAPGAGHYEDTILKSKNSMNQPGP

[13] = test system: FLT3 (human), P36888 [R834Q]
[14] = test system: ALK (human), Q9UM73 [L1196M]
Chain of ALK (human), Q9UM73 [L1196M] (Q9UM73 whole entry L1196M, looked up): as the sequence (Q9UM73 whole entry C1156Y, looked up) above, with Y1156C, L1196M counted along it

[15] = test system: EGFR (human), P00533 [T790M]

Chain of KIT (human), P10721 [L576P] (P10721 whole entry L576P, looked up): as the sequence (P10721 whole entry V559D/V654A, looked up) above, with D559V, L576P, A654V counted along it

SMILES | kinase still bound, per cent of control [1] | kinase still bound, per cent of control [2] | kinase still bound, per cent of control [3] | kinase still bound, per cent of control [4] | kinase still bound, per cent of control [5] | kinase still bound, per cent of control [6] | kinase still bound, per cent of control [7] | kinase still bound, per cent of control [8] | kinase still bound, per cent of control [9] | kinase still bound, per cent of control [10] | kinase still bound, per cent of control [11] | kinase still bound, per cent of control [12] | kinase still bound, per cent of control [13] | kinase still bound, per cent of control [14] | kinase still bound, per cent of control [15]
COc1cc(C(=O)NC2CCN(C)CC2)ccc1Nc1ncc2c(n1)N(C1CCCC1)CCC(=O)N2C(C)C | 100% | 100% | 100% | 100% | 100% | 100% | 100% | 0% | 100% | 100% | 100% |  |  |  | 
Cc1cn(-c2cc(C(=O)Nc3ccc(C)c(NC(=O)c4ccno4)c3)cc(C(F)(F)F)c2)cn1 | 100% | 7.4% | 100% | 100% | 16% | 0% | 100% | 100% | 5.4% | 100% | 100% |  |  |  | 
O=c1[nH]c2ccccc2n1C1CCN(Cc2ccc(-c3nc4cc5[nH]cnc5cc4nc3-c3ccccc3)cc2)CC1 | 100% | 72% | 58% | 68% |  | 87% | 92% | 79% | 92% | 91% | 74% | 55% | 100% | 64% | 67%
CCC(=O)N1CCN(c2ccc(-n3c(=O)ccc4cnc5ccc(-c6cnc7ccccc7c6)cc5c43)cc2C(F)(F)F)CC1 | 100% |  | 84% | 100% | 68% | 48% | 80% | 51% |  | 69% | 18% |  |  |  | 100%
COc1cc2ncnc(Nc3cccc(Cl)c3)c2cc1OC | 22% | 2.3% | 2.5% | 100% |  | 56% | 3.2% | 3.4% | 82% | 94% | 15% | 31% | 58% | 63% | 1.3%
CCOc1cc(N2CCC(O)CC2)ccc1Nc1ncc2c(n1)N(C)c1ccccc1C(=O)N2C | 100% | 100% | 100% | 100% | 100% | 100% | 100% | 100% | 100% | 100% | 100% |  |  |  | 
OCCCNc1cc(-c2ccnc(Nc3cccc(Cl)c3)n2)ccn1 | 100% | 100% | 100% | 100% | 100% | 100% | 100% | 100% | 100% | 100% | 100% |  |  |  | 
